The values that follow come from patent US20250134890A1, “ANTIMALARIAL HEXAHYDROPYRIMIDINE ANALOGUES” (UCB BIOPHARMA SRL, priority 2022, published 2025).

Structures can show the parent of a compound that is named as a salt.

The first assay deals with Plasmodium falciparum: 3D7 strain. The experiment in a line: P. falciparum 3D7 asexual blood stage assay (SYBR green readout). The assay is classed as cell-based. As to conditions: P. falciparum 3D7 in human erythrocytes, 72 h incubation, SYBR green fluorescence; hydrochloride. An outline of the steps: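 3D7-infected erythrocytes (5% haematocrit, 0.5% parasitaemia) were exposed 72 h at 37 °C under 1% O2/3% CO2 to a 20-point titration (50,000-15 nM final, 0.5% DMSO). Parasite DNA was read by SYBR green fluorescence after overnight lysis. Percent inhibition was set against mefloquine and DMSO, and EC50 came from a biphasic two-site fit.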
Take `C[C@H]1C[C@@H](N2C(=N)N[C@](C)(c3cccc(-c4cccc(C(O)C(F)F)c4)c3Cl)CC2=O)CCO1` (single isomer, unassigned) [Example 26, (6S)-6-(2-Chloro-3-{3-[(1S*)-2,2-difluoro-1-hydroxyethyl]phenyl}-phenyl)-2-imino-6-methyl-3-[(2S,4S)-2-methyltetrahydropyran-4-yl]hexahydropyrimidin-4-one hydrochloride]: 55 nM corresponded to half-maximal inhibition (IC50).

The same assay, now with this note: Plasmodium falciparum, 3D7, Erythrocyte, 72 h, P. falciparum 3D7 in human erythrocytes, 72 h incubation, SYBR green fluorescence.
As to `C[C@H]1C[C@@H](N2C(=N)N[C@](C)(c3cccc(-c4cccc(C(O)C(F)(F)F)c4)c3Cl)CC2=O)CCO1` (single isomer, unassigned) [Example 28, (6S)-6-(2-Chloro-3-{3-[(1S*)-2,2,2-trifluoro-1-hydroxyethyl]phenyl}-phenyl)-2-imino-6-methyl-3-[(2S,4S)-2-methyltetrahydropyran-4-yl]hexahydropyrimidin-4-one hydrochloride], the midpoint of inhibition, the IC50, lay at 26 nM.

On to `C[C@@]1(c2cccc(-c3cccc(Cl)c3)c2Cl)CC(=O)N(C(CO)C2CC2)C(=N)N1` (single isomer, unassigned) [Example 94, (6S)-6-[2-Chloro-3-(3-chloro-phenyl)phenyl]-3-[(1R*)-1-cyclopropyl-2-hydroxyethyl]-2-imino-6-methylhexahydro-pyrimidin-4-one hydrochloride], for which the IC50 worked out at 88 nM.

Molecule `C[C@H]1C[C@@H](N2C(=N)N[C@](C)(c3cccc(-c4cncc(Cl)c4)c3Cl)CC2=O)CCO1` [Example 1, (6S)-6-[2-Chloro-3-(5-chloro-pyridin-3-yl)phenyl]-2-imino-6-methyl-3-[(2S,4S)-2-methyl-tetrahydropyran-4-yl]hexahydro-pyrimidin-4-one hydrochloride] displayed a concentration for half-maximal inhibition (IC50) of 22 nM.

The molecule `C[C@H]1C[C@@H](N2C(=N)N[C@](C)(c3cccc(-c4ccc(OC(F)(F)F)cc4Cl)c3Cl)CC2=O)CCO1` [Example 2, (6S)-6-{2-Chloro-3-[2-chloro-4-(trifluoromethoxy)phenyl]phenyl}-2-imino-6-methyl-3-[(2S,4S)-2-methyltetrahydropyran-4-yl]-hexahydropyrimidin-4-one hydrochloride] yielded a half-maximal inhibitory concentration (IC50) of 78 nM.

Molecule `C[C@H]1C[C@@H](N2C(=N)N[C@](C)(c3cccc(-c4cccc(S(C)(=O)=O)c4)c3Cl)CC2=O)CCO1` [Example 4, (6S)-6-[2-Chloro-3-(3-methyl-sulfonylphenyl)phenyl]-2-imino-6-methyl-3-[(2S,4S)-2-methyl-tetrahydropyran-4-yl]hexahydro-pyrimidin-4-one hydrochloride] had an IC50 of 17 nM.

In the case of `C[C@H]1C[C@@H](N2C(=N)N[C@](C)(c3cccc(-c4cccc(P(C)(C)=O)c4)c3Cl)CC2=O)CCO1` [Example 5, (6S)-6-[2-Chloro-3-(3-dimethyl-phosphorylphenyl)phenyl]-2-imino-6-methyl-3-[(2S,4S)-2-methyl-tetrahydropyran-4-yl]hexahydro-pyrimidin-4-one hydrochloride], the IC50 is 101 nM.

In the case of `C[C@H]1C[C@@H](N2C(=N)N[C@](C)(c3cccc(-c4ccc5ncn(CC(F)(F)F)c5c4)c3Cl)CC2=O)CCO1` [Example 6, (6S)-6-{2-Chloro-3-[3-(2,2,2-trifluoroethyl)benzimidazol-5-yl]-phenyl}-2-imino-6-methyl-3-[(2S,4S)-2-methyltetrahydropyran-4-yl]hexahydropyrimidin-4-one hydrochloride], the IC50 turned out to be 26 nM.

Turning to `C[C@H]1C[C@@H](N2C(=N)N[C@](C)(c3cccc(-c4cccc(NS(C)(=O)=O)c4)c3Cl)CC2=O)CCC1(F)F` [Example 13, N-[3-(2-Chloro-3-{(4S)-1-[(1S,3S)-4,4-difluoro-3-methylcyclohexyl]-2-imino-4-methyl-6-oxohexahydro-pyrimidin-4-yl}phenyl)phenyl]-methanesulfonamide trifluoroacetic acid salt], the midpoint of inhibition, the IC50, lay at 10 nM.

In the case of `C[C@H]1C[C@@H](N2C(=N)N[C@](C)(c3cccc(-c4ccc(NS(C)(=O)=O)cc4)c3Cl)CC2=O)CCC1(F)F` [Example 14, N-[4-(2-Chloro-3-{(4S)-1-[(1S,3S)-4,4-difluoro-3-methylcyclohexyl]-2-imino-4-methyl-6-oxohexahydro-pyrimidin-4-yl}phenyl)phenyl]-methanesulfonamide trifluoroacetic acid salt], half-maximal inhibition (IC50) was put at 97 nM.

Regarding `C[C@H]1C[C@@H](N2C(=N)N[C@](C)(c3cccc(-c4ccc(Cl)cc4F)c3Cl)CC2=O)CCO1` [Example 15, (6S)-6-[2-Chloro-3-(4-chloro-2-fluorophenyl)phenyl]-2-imino-6-methyl-3-[(2S,4S)-2-methyl-tetrahydropyran-4-yl]hexahydro-pyrimidin-4-one trifluoroacetic acid salt], half-maximal inhibition (IC50) was put at 142 nM.

`C[C@H]1C[C@@H](N2C(=N)N[C@](C)(c3cccc(-c4ccc(Cl)cc4Cl)c3Cl)CC2=O)CCO1` [Example 16, (6S)-6-[2-Chloro-3-(2,4-dichloro-phenyl)phenyl]-2-imino-6-methyl-3-[(2S,4S)-2-methyltetrahydro-pyran-4-yl]hexahydropyrimidin-4-one trifluoroacetic acid salt] yielded a 50% inhibitory concentration (IC50) of 66 nM.

`C[C@H]1C[C@@H](N2C(=N)N[C@](C)(c3cccc(-c4cccc(Cl)c4)c3Cl)CC2=O)CCO1` [Example 17, (6S)-6-[2-Chloro-3-(3-chloro-phenyl)phenyl]-2-imino-6-methyl-3-[(2S,4S)-2-methyltetrahydro-pyran-4-yl]hexahydropyrimidin-4-one trifluoroacetic acid salt] came in with an IC50 of 92 nM.

`C[C@H]1C[C@@H](N2C(=N)N[C@](C)(c3cccc(-c4ccc(N=S(C)(C)=O)cc4F)c3Cl)CC2=O)CCC1(F)F` [Example 18, (6S)-6-[2-Chloro-3-(4-{[(dimethyl)-(oxo)-λ^6-sulfanylidene]amino}-2-fluorophenyl)phenyl]-3-[(1S,3S)-4,4-difluoro-3-methylcyclohexyl]-2-imino-6-methylhexahydro-pyrimidin-4-one hydrochloride] returned an IC50 of 292 nM.

In the case of `C[C@H]1C[C@@H](N2C(=N)N[C@](C)(c3cccc(-c4ccc(P(C)(C)=O)cc4F)c3Cl)CC2=O)CCC1(F)F` [Example 19, (6S)-6-[2-Chloro-3-(4-dimethyl-phosphoryl-2-fluorophenyl)-phenyl]-3-[(1S,3S)-4,4-difluoro-3-methylcyclohexyl]-2-imino-6-methylhexahydropyrimidin-4-one hydrochloride], the IC50 turned out to be 386 nM.

Still in this assay, the particulars now being: Plasmodium falciparum, Erythrocyte; P. falciparum 3D7 in human erythrocytes, 72 h incubation, SYBR green fluorescence; read-out: IC50.
Regarding `CN(C)[C@H]1C[C@H](N2C(=N)N[C@](C)(c3cccc(-c4ccc(F)cc4F)c3Cl)CC2=O)C1` (single isomer, unassigned; isomer 1) [Example 88], the IC50 was found to be 657 nM.

With `CN(C)[C@H]1C[C@@H](N2C(=N)N[C@](C)(c3cccc(-c4ccc(F)cc4F)c3Cl)CC2=O)C1` (single isomer, unassigned; isomer 2) [Example 89], the half-maximal inhibitory concentration (IC50) amounted to 7950 nM.

As for `C[C@H]1C[C@@H](N2C(=N)N[C@](C)(c3cccc(-c4cccc(N=S(C)(C)=O)c4)c3Cl)CC2=O)CCO1` [Example 3, (6S)-6-[2-Chloro-3-(3-{[(dimethyl)-(oxo)-26-sulfanylidene]amino}-phenyl)phenyl]-2-imino-6-methyl-3-[(2S,4S)-2-methyltetrahydro-pyran-4-yl]hexahydropyrimidin-4-one hydrochloride], the 50% inhibitory concentration (IC50) was 90 nM.

Broadly, the IC50 is the midpoint of a concentration-inhibition curve.
